Experimental data taken from PubChem BioAssay AID1963968 (Molecular Pharmacology Branch, DTP, NCI, 2024).

System: 945468-187-T-J3-PDC spheroids with HUVEC/MSC, viability
Assay: Anticancer human tumor 945468-187-T-J3-PDC patient-derived rectal carcinoma cell line growth inhibition [PI3K]
Details: for IC50: curve of first compound; for viability, T/C: stronger effect = lower value
Summary of the method: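 Multi-cell spheroids combine tumor cells with HUVEC and human MSCs, treated with targeted agents alone or with inavolisib, alpelisib, duvelisib or copanlisib. Concentrations fall in half-log steps from at or near clinical Cmax, or from 10 microM where Cmax is unknown; viability read-out.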
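Also: spheroids exposed to agents for 7 days before viability read.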
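For viability, T/C in this document: 100% = DMSO vehicle control viability.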

`CC(=O)c1c(C)c2cnc(Nc3ccc(N4CCNCC4)cn3)nc2n(C2CCCC2)c1=O` + CC(Nc1ncnc2nc[nH]c12)c1cc2cccc(Cl)c2c(=O)n1-c1ccccc1 was tested, and the IC50 (second compound 0.0316 µM) was greater than 100 nM, the IC50 (second compound 0.1 µM) was greater than 100 nM and the IC50 (second compound 0.316 µM) was greater than 100 nM. It also gave an IC50 (second compound 1 µM) greater than 100 nM, an IC50 (second compound 3.16 µM) greater than 100 nM and an IC50 (second compound 10 µM) greater than 100 nM. The viability, T/C (second compound 0.0316 µM, first compound 0.000316 µM) was 102%, the viability, T/C (second compound 0.0316 µM, first compound 0.001 µM) was 87.6% and the viability, T/C (second compound 0.0316 µM, first compound 0.00316 µM) was 106%. It also gave a viability, T/C (second compound 0.0316 µM, first compound 0.01 µM) of 92.5%, a viability, T/C (second compound 0.0316 µM, first compound 0.0316 µM) of 96.6% and a viability, T/C (second compound 0.0316 µM, first compound 0.1 µM) of 92.6%. For the same compound, the viability, T/C (second compound 0.1 µM, first compound 0.000316 µM) was 91.4%, the viability, T/C (second compound 0.1 µM, first compound 0.001 µM) was 100% and the viability, T/C (second compound 0.1 µM, first compound 0.00316 µM) was 87.5%. It also gave a viability, T/C (second compound 0.1 µM, first compound 0.01 µM) of 91.4%, a viability, T/C (second compound 0.1 µM, first compound 0.0316 µM) of 99.1% and a viability, T/C (second compound 0.1 µM, first compound 0.1 µM) of 113%. For the same compound, the viability, T/C (second compound 0.316 µM, first compound 0.000316 µM) was 111%, the viability, T/C (second compound 0.316 µM, first compound 0.001 µM) was 89.2% and the viability, T/C (second compound 0.316 µM, first compound 0.00316 µM) was 94.1%. It also gave a viability, T/C (second compound 0.316 µM, first compound 0.01 µM) of 94.5%, a viability, T/C (second compound 0.316 µM, first compound 0.0316 µM) of 99.3% and a viability, T/C (second compound 0.316 µM, first compound 0.1 µM) of 98%. For the same compound, the viability, T/C (second compound 1 µM, first compound 0.000316 µM) was 98.3%, the viability, T/C (second compound 1 µM, first compound 0.001 µM) was 93.5% and the viability, T/C (second compound 1 µM, first compound 0.00316 µM) was 86.5%. For the same compound, the viability, T/C (second compound 1 µM, first compound 0.01 µM) was 93.2%, the viability, T/C (second compound 1 µM, first compound 0.0316 µM) was 102% and the viability, T/C (second compound 1 µM, first compound 0.1 µM) was 89.4%. For the same compound, the viability, T/C (second compound 3.16 µM, first compound 0.000316 µM) was 95.2%, the viability, T/C (second compound 3.16 µM, first compound 0.001 µM) was 95% and the viability, T/C (second compound 3.16 µM, first compound 0.00316 µM) was 99.1%. For the same compound, the viability, T/C (second compound 3.16 µM, first compound 0.01 µM) was 98.6%, the viability, T/C (second compound 3.16 µM, first compound 0.0316 µM) was 105% and the viability, T/C (second compound 3.16 µM, first compound 0.1 µM) was 93.8%. The viability, T/C (second compound 10 µM, first compound 0.000316 µM) was 106%, the viability, T/C (second compound 10 µM, first compound 0.001 µM) was 107% and the viability, T/C (second compound 10 µM, first compound 0.00316 µM) was 106%. For the same compound, the viability, T/C (second compound 10 µM, first compound 0.01 µM) was 108%, the viability, T/C (second compound 10 µM, first compound 0.0316 µM) was 106% and the viability, T/C (second compound 10 µM, first compound 0.1 µM) was 103%.
